Publication PMC7251097, “Aspartate/asparagine-β-hydroxylase: a high-throughput mass spectrometric assay for discovery of small molecule inhibitors” (Scientific Reports, 2020)
Where a name gives a salt, the structure may show the parent alone. Read-outs that look alike come from different tables or passages of the source.

Molecular target: T1, His6-AspH315–758 (human aspartate/asparagine-β-hydroxylase, AspH) (Homo sapiens, UniProt Q12797)
T1 construct: N-Terminally His6-tagged human AspH315–758 (His6-AspH315–758) was produced in E. coli BL21 (DE3) cells; made in house; host or cells: E. coli BL21 (DE3), pET-28a(+) vector
T1 sequence (Q12797 315-758): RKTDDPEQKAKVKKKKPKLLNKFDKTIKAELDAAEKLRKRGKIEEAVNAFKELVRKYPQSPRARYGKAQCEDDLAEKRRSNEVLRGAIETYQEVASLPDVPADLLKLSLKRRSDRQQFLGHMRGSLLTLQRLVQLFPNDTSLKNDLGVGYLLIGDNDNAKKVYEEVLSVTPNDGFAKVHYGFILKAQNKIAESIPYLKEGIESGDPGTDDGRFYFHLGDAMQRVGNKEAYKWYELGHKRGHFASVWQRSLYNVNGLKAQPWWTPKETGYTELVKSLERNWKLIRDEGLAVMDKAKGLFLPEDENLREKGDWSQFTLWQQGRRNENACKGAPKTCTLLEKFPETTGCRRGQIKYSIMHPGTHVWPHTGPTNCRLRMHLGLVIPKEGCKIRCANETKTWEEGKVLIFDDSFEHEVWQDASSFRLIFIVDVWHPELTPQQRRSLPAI
Assay: SPE-MS AspH inhibition assay (LOPAC screen at fixed 20 μM and IC50 dose-response), hydroxylation of cyclic peptide hFX-CP101–119
Format: biochemical
Conditions: for Plate 1 (% inhibition) / Plate 1 (% conversion): LOPAC compound at fixed 20 uM; for Plate 1 (% inhibition): plate 1, normalised to DMSO and 2,4-PDCA controls

[1] = LOPAC compound at 20uM, plate 2, conversion of substrate peptide
[2] = LOPAC compound at 20uM, plate 2, normalised to DMSO and 2,4-PDCA controls
[3] = LOPAC compound at 20uM, conversion of substrate peptide
[4] = plate 5 (Pfitzer), test compounds at fixed 20 μM
[5] = plate 5 (Pfitzer), test compounds at fixed 20 μM, mean conversion DMSO 32.88
[6] = LOPAC Plate 4, compound at 20 uM
[7] = LOPAC Plate 4, compound at 20 uM, substrate conversion

CC1(N2CCC(n3c([C@@H]4CCCNC4)nc4ccccc43)CC2)CCCCCCC1 [MCOPPB]
Plate 5 (% conversion): 39.16%
Plate 5 (% inhibition): -8.35%

Br.CCCN1CCc2cc(O)cc3c2[C@H]1Cc1ccc(O)c(O)c1-3
Plate 2 (% conversion) [1]: 6.67%
Plate 2 (% inhibition) [2]: 87.47%

CNC1(C)C2CCC(C2)C1(C)C (stereo not shown) [Mecamylamine hydrochloride]
Plate 3 (% conversion) [3]: 34.21%

C[C@](N)(CCP(=O)(O)O)C(=O)O.Cl [(S)-MAP4 hydrochloride]
Plate 3 (% conversion) [3]: 32.97%

COc1ccccc1N1CCNCC1.Cl
% conversion: 37.50%
% inhibition (20 µM): -3.01%

CC(N)c1cccc(Cl)c1Cl.Cl (racemic)
Plate 2 (% conversion): 38.94%
Plate 2 (% inhibition) (20 µM): -8.91%

Cc1cc2c(cc1Cl)N(C(=O)Nc1ccc(Oc3cccnc3C)nc1)CC2.Cl.Cl.O [SB 242084 dihydrochloride hydrate]
Plate 3 (% conversion) [3]: 37.92%

COCc1nc2c([nH]1)c(=O)n(C)c(=O)n2CC(C)C
Plate 3 (% conversion) [3]: 35.26%

COc1ccc2c(c1)CCC(c1ccccc1)=C2c1ccc(OCCN2CCCC2)cc1 [Nafoxidine]
Plate 5 (% inhibition) [4]: -70.28%
Plate 5 (% conversion) [5]: 60.23%

CS(=O)(=O)O.O.O=C(OC1C[C@@H]2CC3C[C@H](C1)N2CC3=O)c1c[nH]c2ccccc12 (stereo partly shown) [Dolasetron mesylate hydrate]
% inhibition [6]: -4.53%
% conversion [7]: 38.02%

Cc1cn([C@H]2C[C@H](N=[N+]=[N-])[C@@H](CO)O2)c(=O)[nH]c1=O [3-Azido-3-deoxythymidine]
Plate 1 (% inhibition): -7.24%
Plate 1 (% conversion) (substrate conversion): 38.30%

O=C(O)CP(=O)(O)O [Phosphonoacetic acid]
% conversion [7]: 17.53%
inhibition at 20 µM (LOPAC Plate 4, compound at 20 uM, read-out: % inhibition): 55.5%

CNC[C@H](O)c1cccc(O)c1 [Phenylephrine hydrochloride]
Plate 3 (% conversion) [3]: 35.74%

Clc1ccc(N2C[C@H]3CC[C@@H](C2)N3)nn1 [DBO-83]
Plate 2 (% conversion) [1]: 32.84%
Plate 2 (% inhibition) [2]: 9.30%

NS(=O)(=O)c1cc(C(=O)O)c(NCc2ccco2)cc1Cl [Furosemide]
inhibition at 20 µM (LOPAC compound at 20uM, plate 2, normalised to DMSO and 2,4-PDCA controls, read-out: Plate 2 (% inhibition)): 2.67%

O=C(Nc1nc2ccccc2n1CCN1CCOCC1)c1cccc([N+](=O)[O-])c1 [IRAK-1/4 Inhibitor I]
% inhibition [6]: -1.55%
% conversion [7]: 37.00%

N#Cc1cc([N+](=O)[O-])c2sc(C(N)=O)[n+]([O-])c2c1 [BTO-1]
Plate 1 (% inhibition): -2.18%
Plate 1 (% conversion) (substrate conversion): 36.60%

CCN(CC)CCNC(=O)c1ccc(NC(C)=O)cc1.Cl [N-Acetylprocainamide hydrochloride]
Plate 1 (% inhibition): 3.70%
Plate 1 (% conversion) (substrate conversion): 34.63%

CN1C[C@H](O)[C@@H](O)[C@H](O)[C@H]1CO [N-Methyl-1-deoxynojirimycin]
Plate 2 (% conversion) [1]: 34.79%
Plate 2 (% inhibition) [2]: 3.48%

Clc1ccccc1C(c1ccccc1)(c1ccccc1)n1ccnc1 [Clotrimazole]
Plate 1 (% inhibition): -28.43%
Plate 1 (% conversion) (substrate conversion): 45.42%

Nc1ncnc2c1ncn2[C@@H]1O[C@H](COP(=O)(O)OP(=O)(O)OP(=O)(O)OP(=O)(O)OC[C@H]2O[C@@H](n3cnc4c(N)ncnc43)[C@H](O)[C@@H]2O)[C@@H](O)[C@H]1O
Plate 2 (% conversion) [1]: 27.58%
Plate 2 (% inhibition) [2]: 25.01%

CC(C)NCC(O)COc1ccc(CCOCC2CC2)cc1 (stereo not shown) [Betaxolol hydrochloride]
Plate 1 (% inhibition): -3.28%
Plate 1 (% conversion) (substrate conversion): 36.97%

CNC(=O)[C@H]1O[C@@H](n2cnc3c(NCc4cccc(I)c4)ncnc32)[C@H](O)[C@@H]1O [IB-MECA]
Plate 3 (% conversion) [3]: 35.04%

NC/C=C/C(=O)O [(E)-4-amino-2-butenoic acid]
% inhibition [6]: 0.14%
% conversion [7]: 36.42%

C/C(=C\c1ccc(C(=O)O)cc1)c1ccc2c(c1)C(C)(C)CCC2(C)C [TTNPB]
% conversion [7]: 26.33%

CCN(CC)CCCCNc1ncc2cc(-c3c(Cl)cccc3Cl)c(NC(=O)NC(C)(C)C)nc2n1 [PD-161570]
Plate 3 (% conversion) [3]: 41.21%
Plate 5 (% inhibition) [4]: -29.14%
Plate 5 (% conversion) [5]: 46.23%

C#CCN(C)Cc1ccccc1 [Pargyline hydrochloride]
% conversion [7]: 31.34%
